Data from PubChem BioAssay AID2060503 (Molecular Pharmacology Branch, DTP, NCI, 2025).

Test system: 817829-284-R-J1-PDC complex spheroids, viability
Assay: Anticancer human tumor 817829-284-R-J1-PDC patient-derived colon adenocarcinoma cell line growth inhibition [GQUAD]
Details: for IC50: curve of first compound; for viability, T/C: stronger effect = lower value; active means viability on the fitted dose curve at most 10% of control; inactive means the rest
Outline: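 Tumor cells were grown as complex spheroids with HUVEC endothelial cells and mesenchymal stem cells as stroma. G-quadruplex stabilizers were combined with targeted agents over half-log dilutions from near the clinical Cmax, or from 10 microM.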

[1] = second compound 0.0316 µM, first compound 0.0316 µM
[2] = second compound 0.0316 µM, first compound 0.1 µM
[3] = second compound 0.0316 µM, first compound 0.316 µM
[4] = second compound 0.0316 µM, first compound 1 µM
[5] = second compound 0.0316 µM, first compound 3.16 µM
[6] = second compound 0.0316 µM, first compound 10 µM
[7] = second compound 0.1 µM, first compound 0.0316 µM
[8] = second compound 0.1 µM, first compound 0.1 µM
[9] = second compound 0.1 µM, first compound 0.316 µM
[10] = second compound 0.1 µM, first compound 1 µM
[11] = second compound 0.1 µM, first compound 3.16 µM
[12] = second compound 0.1 µM, first compound 10 µM
[13] = second compound 0.316 µM, first compound 0.0316 µM
[14] = second compound 0.316 µM, first compound 0.1 µM
[15] = second compound 0.316 µM, first compound 0.316 µM
[16] = second compound 0.316 µM, first compound 1 µM
[17] = second compound 0.316 µM, first compound 3.16 µM
[18] = second compound 0.316 µM, first compound 10 µM
[19] = second compound 1 µM, first compound 0.0316 µM
[20] = second compound 1 µM, first compound 0.1 µM
[21] = second compound 1 µM, first compound 0.316 µM
[22] = second compound 1 µM, first compound 1 µM
[23] = second compound 1 µM, first compound 3.16 µM
[24] = second compound 1 µM, first compound 10 µM
[25] = second compound 3.16 µM, first compound 0.0316 µM
[26] = second compound 3.16 µM, first compound 0.1 µM
[27] = second compound 3.16 µM, first compound 0.316 µM
[28] = second compound 3.16 µM, first compound 1 µM
[29] = second compound 3.16 µM, first compound 3.16 µM
[30] = second compound 3.16 µM, first compound 10 µM
[31] = second compound 10 µM, first compound 0.0316 µM
[32] = second compound 10 µM, first compound 0.1 µM
[33] = second compound 10 µM, first compound 0.316 µM
[34] = second compound 10 µM, first compound 1 µM
[35] = second compound 10 µM, first compound 3.16 µM
[36] = second compound 10 µM, first compound 10 µM
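Further: spheroids exposed to agents for 7 days before readout.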
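Wherever viability, T/C is given: percent viability relative to DMSO vehicle control taken as 100%.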

C#Cc1c(F)ccc2cc(O)cc(-c3ncc4c(N5CC6CCC(C5)N6)nc(OCC56CCCN5CC(F)C6)nc4c3F)c12 (stereo unspecified) + CN(C)c1ccc(Nc2c3ccc(NC(=O)CCN4CCCC4)cc3nc3cc(NC(=O)CCN4CCCC4)ccc23)cc1
inactive: viability, T/C [1] 120% | viability, T/C [2] 98.2% | viability, T/C [3] 96% | viability, T/C [4] 98.1% | viability, T/C [5] 117% | viability, T/C [6] 121% | viability, T/C [7] 95.5% | viability, T/C [8] 106% | viability, T/C [9] 95.8% | viability, T/C [10] 98.4% | viability, T/C [11] 114% | viability, T/C [12] 116% | viability, T/C [13] 111% | viability, T/C [14] 105% | viability, T/C [15] 97.9% | viability, T/C [16] 106% | viability, T/C [17] 101% | viability, T/C [18] 118% | viability, T/C [19] 96.1% | viability, T/C [20] 97% | viability, T/C [21] 113% | viability, T/C [22] 97.8% | viability, T/C [23] 105% | viability, T/C [24] 105% | viability, T/C [25] 107% | viability, T/C [26] 112% | viability, T/C [27] 102% | viability, T/C [28] 110% | viability, T/C [29] 117% | viability, T/C [30] 101% | viability, T/C [31] 107% | viability, T/C [32] 116% | viability, T/C [33] 87.4% | viability, T/C [34] 94% | viability, T/C [35] 61.5% | viability, T/C [36] 24.5%
4.69 µM: IC50 (second compound 10 µM)
> 10 µM: IC50 (second compound 0.0316 µM) | IC50 (second compound 0.1 µM) | IC50 (second compound 0.316 µM) | IC50 (second compound 1 µM) | IC50 (second compound 3.16 µM)

O=C(c1cc(Cc2n[nH]c(=O)c3ccccc23)ccc1F)N1CCN(C(=O)C2CC2)CC1 + CN(C)c1ccc(Nc2c3ccc(NC(=O)CCN4CCCC4)cc3nc3cc(NC(=O)CCN4CCCC4)ccc23)cc1
> 10 µM: IC50 (second compound 0.0316 µM) | IC50 (second compound 0.1 µM) | IC50 (second compound 0.316 µM) | IC50 (second compound 1 µM) | IC50 (second compound 3.16 µM) | IC50 (second compound 10 µM)
inactive: viability, T/C [1] 108% | viability, T/C [2] 97.8% | viability, T/C [3] 102% | viability, T/C [4] 90.7% | viability, T/C [5] 78.8% | viability, T/C [6] 58.3% | viability, T/C [7] 101% | viability, T/C [8] 107% | viability, T/C [9] 108% | viability, T/C [10] 98.6% | viability, T/C [11] 100% | viability, T/C [12] 60.2% | viability, T/C [13] 102% | viability, T/C [14] 97.6% | viability, T/C [15] 107% | viability, T/C [16] 93% | viability, T/C [17] 95.2% | viability, T/C [18] 66.8% | viability, T/C [19] 107% | viability, T/C [20] 96.7% | viability, T/C [21] 99% | viability, T/C [22] 93.7% | viability, T/C [23] 93.7% | viability, T/C [24] 62.5% | viability, T/C [25] 100% | viability, T/C [26] 103% | viability, T/C [27] 94.1% | viability, T/C [28] 99.5% | viability, T/C [29] 94.9% | viability, T/C [30] 58.3% | viability, T/C [31] 97.4% | viability, T/C [32] 102% | viability, T/C [33] 94.5% | viability, T/C [34] 88.4% | viability, T/C [35] 70.7% | viability, T/C [36] 52.5%

Cc1[nH]c2ccccc2c1CCNCc1ccc(/C=C/C(=O)NO)cc1 + Cc1[nH]c2ccc(F)cc2c1-c1nc2c3cccnc3c3ncccc3c2[nH]1
inactive: viability, T/C (second compound 0.0316 µM, first compound 0.000999 µM) 89.7% | viability, T/C (second compound 0.0316 µM, first compound 0.00316 µM) 102% | viability, T/C (second compound 0.0316 µM, first compound 0.00999 µM) 121% | viability, T/C [1] 91.4% | viability, T/C (second compound 0.1 µM, first compound 0.000999 µM) 110% | viability, T/C (second compound 0.1 µM, first compound 0.00316 µM) 108% | viability, T/C (second compound 0.1 µM, first compound 0.00999 µM) 125% | viability, T/C [7] 89.8% | viability, T/C (second compound 0.316 µM, first compound 0.000999 µM) 99.5% | viability, T/C (second compound 0.316 µM, first compound 0.00316 µM) 119% | viability, T/C (second compound 0.316 µM, first compound 0.00999 µM) 121% | viability, T/C [13] 92.7% | viability, T/C (second compound 1 µM, first compound 0.000999 µM) 101% | viability, T/C (second compound 1 µM, first compound 0.00316 µM) 112% | viability, T/C (second compound 1 µM, first compound 0.00999 µM) 117% | viability, T/C [19] 82% | viability, T/C (second compound 3.16 µM, first compound 0.000999 µM) 71.3% | viability, T/C (second compound 3.16 µM, first compound 0.00316 µM) 99.3% | viability, T/C (second compound 3.16 µM, first compound 0.00999 µM) 65.2% | viability, T/C [25] 38.8% | viability, T/C (second compound 10 µM, first compound 0.000999 µM) 41.8% | viability, T/C (second compound 10 µM, first compound 0.00316 µM) 56.7% | viability, T/C (second compound 10 µM, first compound 0.00999 µM) 40.3% | viability, T/C [31] 28.5%
active: viability, T/C (second compound 0.0316 µM, first compound 0.0999 µM) 4.1% | viability, T/C [3] 0.13% | viability, T/C (second compound 0.1 µM, first compound 0.0999 µM) 3.87% | viability, T/C [9] 0.11% | viability, T/C (second compound 0.316 µM, first compound 0.0999 µM) 4.91% | viability, T/C [15] 0.1% | viability, T/C (second compound 1 µM, first compound 0.0999 µM) 5.56% | viability, T/C [21] 0.1% | viability, T/C (second compound 3.16 µM, first compound 0.0999 µM) 3.35% | viability, T/C [27] 0.16% | viability, T/C (second compound 10 µM, first compound 0.0999 µM) 2.12% | viability, T/C [33] 0.24%
0.0536 µM: IC50 (second compound 0.1 µM)
< 0.000999 µM: IC50 (second compound 10 µM)
0.0552 µM: IC50 (second compound 0.316 µM)
0.0202 µM: IC50 (second compound 3.16 µM)
0.051 µM: IC50 (second compound 1 µM)
0.0545 µM: IC50 (second compound 0.0316 µM)
